Results as given in patent publication US7754687B2, “Methods of inhibiting viral infection” (Mount Sinai School of Medicine, priority 2005, dated 2010).
Where two headings read alike, the source gives them in different places. No end group written: not given here.

Columns and labels:
HIV-1VSV = type: cell-based
HIV-1BaL = HIV-1BaL replication in primary macrophages, p24 antigen ELISA; type: cell-based
HDAC = assay: Effect of sodium butyrate on ProTα activity in macrophages carrying integrated HIV-1; type: cell-based; settings: data not presented
Text: Moreover, both IkBα and ProTα can bind to HDAC and form intracellular complexes with DNA (51, 52). Therefore investigating the functions of these transcriptional factors and studying the competitive binding of HDAC to IkB and/or ProTα and chromatin immunoprecipitation studies may help to further reveal how ProTα inhibits HIV-1 transcription in primary macrophages.

HIV-1JRFL [1] = type: cell-based; settings: primary macrophages
HIV-1JRFL [2] = type: cell-based; settings: HeLa CD4+/CCR5+ cells
HIV-1JRFL [3] = type: cell-based; settings: Hos CD4+/CCR5+ cells; data not presented
[4] = test system: CCR5 tropic HIV-1 primary isolates; assay: Replication of CCR5 HIV-1 primary isolate in primary macrophages, p24; type: cell-based; settings: 200 ng/ml, p24 day 15
[5] = test system: dual tropic HIV-1 primary isolate; assay: Replication of dual tropic HIV-1 primary isolate in primary macrophages, p24; type: cell-based; settings: 200 ng/ml, p24 day 15
HIVVSV = type: cell-based, HIV-1; settings: 200 ng/ml
[6] = test system: HIV-1 LTR controlled luciferase reporter gene mRNA; assay: Real time RT-PCR of luciferase reporter gene mRNA in HIV-1VSV infected macrophages; type: cell-based; settings: 200 ng/ml for 24 hr; 72 hr post infection; vs control medium
Procedure: (§1) RNA was isolated from macrophages infected with HIVVSV for 72 hr and treated with medium alone or ProTα 24 hr post treatment using Absolutely RNA kit (Stratagene). Real time PCR was done at Mount Sinai Medical Center Core Facility using following primers: […]
for Luciferase reporter gene: sense-[…] antisense-[…].
(§2) Each assay was performed in triplicate. Quantification of each PCR product was expressed relative to -actin.

STAT1 [7] = assay: STAT1 phosphorylation western blot, primary macrophages; type: cell-based; settings: 15 min, ProTα 1 μg/mL or 10% conditioned medium
Procedure: (§3) Whole cell extract from macrophages and Hela cells treated with 10% cell conditioned medium from CD8+ cells, ProTα or medium was prepared by adding 1×SDS Sample buffer (100 ul per 6 well plate). For western blot analyses, protein samples were treated with 2.5 M DTT or 2.5% 2-mercaptoethanol and separated by SDS-Page 4-20% Tris-Glycine gradient gels (Novex-Invitrogen Calif.). Following separation by SDS-Page, the gel was blotted onto PVDF membrane (Novex-Invitrogen San-Diego, Carlsbad, Calif.). After blocking with 5% nonfat milk the membrane was incubated with 1/1000 dilution of anti P-STAT-1 (Tyr701) (Cell Signaling Technology) for 24 hr at 4° C. in PBS. The membrane was washed in PBS with 0.05% Tween 20 and treated with 1/2000 diluted anti-rabbit antibodies labeled with horseradish […] (Amersham pharmacia UK). The membrane was washed in PBS with 0.05% tween 20 and Western blot chemiluminescence reagent was added.
(§4) To establish whether ProTα also induces STAT1 activation in primary macrophages and HeLa-CD4 cells, such cells were briefly (15 min) incubated with ProTα protein at 1 μg/mL or 10% cell conditioned medium after incubation for 2 hr in serum free medium to reduce baseline phosphorylation. A western blot of the electrophoresed total lysate of treated and untreated cells was probed with an antibody specific for STAT1 phosphorylated at tyrosine 701 (FIG. 8).

STAT1 [8] = assay: STAT1 phosphorylation western blot, HeLa-CD4 cells; type: cell-based; settings: 15 min, ProTα 1 μg/mL or 10% conditioned medium
Procedure: as §3, §4

CMV promoter = assay: Luciferase reporter under CMV promoter (VVCW/LBE) in macrophages; type: cell-based; settings: 200 ng/ml at 48-72 hr post infection; 24 hr post treatment
Text: (§5) Inhibition of HIV-1 Gene Transcription by ProTα is not Selective for the HIV-1 LTR Promoter. To determine whether the effect of ProTα on HIV-1 gene transcription is specific for the LTR promoter, the present inventors used two other HIV derived lentiviral vectors carrying luciferase reporter genes under control of PGK (phosphoglycerate kinase-VVPW/LBE) or CMV (cytomegalovirus-VVCW/LBE) promoters (kindly provided by Dr. L. Gusella). Macrophages were infected with HIV-1VSV carrying the luciferase gene, under the control of LTR, PGK or CMV promoters. At 48-72 hr post infection when viral integration is completed, ProTα at 200 ng/ml was introduced.

PGK promoter = assay: Luciferase reporter under PGK promoter (VVPW/LBE) in macrophages; type: cell-based; settings: 200 ng/ml at 48-72 hr post infection; 24 hr post treatment
Text: as §5

mC2,C3-Ba-L = assay: Replication of LTR-mutated mC2,C3-Ba-L in primary macrophages, p24; type: cell-based, HIV-1; settings: 200 ng/ml, p24 days 6-10, 3 donors
[9] = test system: HIV-1 lab isolates (HIV-1BaL and HIV-1IIIB) or HIV-1 primary isolates; assay: HIV-1 replication in primary CD4+ cells (lab and primary isolates); type: cell-based; settings: primary CD4+ cells; data not presented
IkBα mRNA = IkBα mRNA by real time PCR in macrophages carrying integrated HIV; type: cell-based; settings: data not presented
Procedure: as §1
for IkB sense-[…] anisense-[…].
as §2

IkBα protein = IkBα protein level in the nucleus of macrophages; type: cell-based; settings: 1 hr post treatment, data not presented
STAT2 = STAT2 phosphorylation in treated macrophages; settings: supernatant 10% by volume, data not presented
type one and/or two IFNs = assay: Induction of type one and/or two IFN mRNA in primary macrophages; settings: 24 hr post treatment, data not presented

`Cc1cn([C@H]2C[C@H](N=[N+]=[N-])[C@@H](CO)O2)c(=O)[nH]c1=O` [AZT, azidothymidine, reference compound] was tested, and the “effect on HIV-1 gene expression (luciferase)” value (shortened to “effect”) (HIV-1VSV) was “no effect”.

In the case of `O=C(O)C(=O)CC(=O)c1cccn1Cc1ccc(F)cc1` [L-731 988, reference compound], the “suppression of virus replication by integrase inhibitor” value (HIV-1BaL; added at 2 hr post infection, replication competent viruses) is reported as “did not completely suppress virus replication” and the “effect” value (HIV-1VSV) is reported as “no effect”.

`CCCC(=O)[O-].[Na+]` [sodium butyrate] was tested, and the “reduction in ProTα activity” value (HDAC) was 70-80%.

With prothymosin alpha [ProTα] the “reduction of viral p24 antigen” value (HIV-1BaL; 2 ng/mL rProTα, primary macrophages) was “greater than 80%”, the “inhibition of wild type (LTR) virus” value (HIV-1BaL; primary macrophages, 200 ng/ml, p24 days 6-10, 3 donors) was 90-95% and the “suppression of HIV-1BaL replication as measured by HIV-1 p24 antigen” value (HIV-1BaL; primary macrophages, dose response) was “dosage dependent suppression”. For the same molecule, the “inhibition of the luciferase reporter gene of HIV-1JRFL” value (HIV-1JRFL [1]; dose response) was “dose dependent inhibition”, the “concentration at which anti-HIV-1 activity was exhibited (as low as)” value (HIV-1JRFL [1]; luciferase 72 hr post infection) was 20 ng/mL and the anti-HIV-1JRFL activity (HIV-1JRFL [2]) was “did not, however, exhibit anti-HIV-1JRFL activity”. For the same molecule, the anti-HIV-1JRFL activity (HIV-1JRFL [3]) was “did not, however, exhibit anti-HIV-1JRFL activity”, the “replication of CCR5 HIV-1 primary isolate” value [4] was “inhibited replication” and the “replication of dual tropic HIV-1 primary isolate” value [5] was “inhibited replication”. For the same molecule, the “reduction of expression of the reporter gene luciferase” value (HIVVSV; DCs treated 2 hr post infection) was 90%, the “inhibition of integrated proviral HIV-1” value (HIVVSV; DCs treated 72 hr post infection) was 65-75% and the “effect” value (HIV-1VSV) was “inhibit HIV-1 gene expression”. The “expression of luciferase reporter gene from LTR promoter” value (HIV-1VSV) was “inhibited expression”, the “reduction of HIV-1 gene expression” value (HIV-1VSV) was 80% and the “suppression of LTR controlled luciferase reporter gene mRNA levels” value [6] was 80%. The “phosphorylation state of STAT1 (Tyr701)” value (STAT1 [7]) was “no effect”, the “phosphorylation state of STAT1 (Tyr701)” value (STAT1 [8]) was “no effect” and the “expression of luciferase reporter gene from CMV promoter” value (CMV promoter) was “inhibited expression”. The “expression of luciferase reporter gene from PGK promoter” value (PGK promoter) was “inhibited expression”, the “suppression of mutated (LTR) virus replication” value (mC2,C3-Ba-L) was 60-80% and the suppression of replication [9] was “varying from 30-40% suppression to no suppression”. The “induction of IkBα mRNA” value (IkBα mRNA) was 10 fold, the “level of IkBα protein in the nucleus” value (IkBα protein) was “increased substantially” and the “STAT 2 phosphorylation” value (STAT2) was “did not induce STAT 2 phosphorylation”. For the same molecule, the “induction of type one and/or two IFN mRNA” value (type one and/or two IFNs) was “no induction”.

In the case of “thymosin alpha 1 (Ac-SDAAVDTSSEITTKDLKEKKEVVEEAEN; UniProt P06454 2-29, looked up, fragment) [Tα1, chemically synthesized peptide homologous to the first 28 amino acids of ProTα, reference compound]”, the “activity against the HIVJRFL expressing luciferase reporter gene” value (HIV-1JRFL [1]; up to 1 μg/mL) is reported as “no activity”.
